Test results published in ChEMBL document CHEMBL1201862, “PubChem BioAssay data set” (2004).
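How tested: cells in 96-well plates exposed to compound for 48 hours at five concentrations. Here, GI50 denotes the concentration required for 50% inhibition of growth.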 The source made the active and inactive calls. No stated cut-off is given here; in the data, active = GI50 up to about 1.1 µM and inactive = higher.

Key:
Experiment in all cases: growth of human tumour cells (NCI), 48 h
[1] = test system: 786-0
[2] = test system: A498
[3] = test system: A549
[4] = test system: ACHN
[5] = test system: BT-549
[6] = test system: CAKI-1
[7] = test system: CCRF-CEM
[8] = test system: COLO 205
[9] = test system: DU-145
[10] = test system: EKVX
[11] = test system: HCC 2998
[12] = test system: HCT-116
[13] = test system: HCT-15
[14] = test system: HL-60
[15] = test system: HOP-62
[16] = test system: HOP-92
[17] = test system: HT-29
[18] = test system: Hs-578T
[19] = test system: IGROV-1
[20] = test system: K562
[21] = test system: KM12
[22] = test system: LOX IMVI
[23] = test system: M14
[24] = test system: MCF7
[25] = test system: MDA-MB-231
[26] = test system: MDA-MB-435
[27] = test system: MDA-N
[28] = test system: MOLT-4
[29] = test system: Malme-3M
[30] = test system: NCI-H226
[31] = test system: NCI-H23
[32] = test system: NCI-H460
[33] = test system: NCI-H522
[34] = test system: NCI/ADR-RES
[35] = test system: OVCAR-3
[36] = test system: OVCAR-5
[37] = test system: OVCAR-8
[38] = test system: PC-3
[39] = test system: RPMI-8226
[40] = test system: RXF 393
[41] = test system: SF-268
[42] = test system: SF-295
[43] = test system: SF-539
[44] = test system: SK-MEL-28
[45] = test system: SK-MEL-2
[46] = test system: SK-MEL-5
[47] = test system: SK-OV-3
[48] = test system: SN12C
[49] = test system: SNB-19
[50] = test system: SNB-75
[51] = test system: SR
[52] = test system: SW-620
[53] = test system: T47D
[54] = test system: U-251
[55] = test system: UACC-257
[56] = test system: UACC-62
[57] = test system: UO-31

`CN(C)c1ccc(/C=C(\NC(=O)c2ccccc2)C(=O)NCC(=O)O)cc1` was tested, and the GI50 [1] was > 100 µM (inactive), the GI50 [2] was > 100 µM (inactive) and the GI50 [3] was > 100 µM (inactive). For the same compound, the GI50 [4] was > 100 µM (inactive), the GI50 [5] was > 100 µM (inactive) and the GI50 [6] was > 100 µM (inactive). For the same compound, the GI50 [7] was > 100 µM (inactive), the GI50 [8] was > 100 µM (inactive) and the GI50 [9] was > 100 µM (inactive). For the same compound, the GI50 [10] was > 100 µM (inactive), the GI50 [11] was > 100 µM (inactive) and the GI50 [12] was > 100 µM (inactive). For the same compound, the GI50 [13] was > 100 µM, the GI50 [14] was 75.5 nM (active) and the GI50 [15] was > 100 µM (inactive). For the same compound, the GI50 [16] was > 100 µM (inactive), the GI50 [17] was > 100 µM (inactive) and the GI50 [18] was > 100 µM (inactive). For the same compound, the GI50 [19] was > 100 µM (inactive), the GI50 [20] was > 100 µM (inactive) and the GI50 [21] was > 100 µM (inactive). The GI50 [22] was > 100 µM (inactive), the GI50 [23] was > 100 µM (inactive) and the GI50 [24] was > 100 µM (inactive). The GI50 [25] was > 100 µM (inactive), the GI50 [26] was > 100 µM (inactive) and the GI50 [27] was > 100 µM (inactive). For the same compound, the GI50 [28] was > 100 µM (inactive), the GI50 [29] was > 100 µM (inactive) and the GI50 [30] was > 100 µM (inactive). For the same compound, the GI50 [31] was > 100 µM (inactive), the GI50 [32] was > 100 µM (inactive) and the GI50 [33] was > 100 µM (inactive). The GI50 [34] was > 100 µM (inactive), the GI50 [35] was > 100 µM (inactive) and the GI50 [36] was > 100 µM (inactive). The GI50 [37] was > 100 µM (inactive), the GI50 [38] was > 100 µM (inactive) and the GI50 [39] was > 100 µM (inactive). For the same compound, the GI50 [40] was > 100 µM (inactive), the GI50 [41] was > 100 µM (inactive) and the GI50 [42] was > 100 µM (inactive). The GI50 [43] was > 100 µM (inactive), the GI50 [44] was > 100 µM (inactive) and the GI50 [45] was > 100 µM (inactive). For the same compound, the GI50 [46] was > 100 µM (inactive), the GI50 [47] was > 100 µM (inactive) and the GI50 [48] was > 100 µM (inactive). The GI50 [49] was > 100 µM (inactive), the GI50 [50] was > 100 µM (inactive) and the GI50 [51] was > 100 µM (inactive). For the same compound, the GI50 [52] was > 100 µM (inactive), the GI50 [53] was > 100 µM (inactive) and the GI50 [54] was > 100 µM (inactive). The GI50 [55] was > 100 µM (inactive), the GI50 [56] was > 100 µM (inactive) and the GI50 [57] was > 100 µM (inactive).
